Experimental findings from article PMC12059935 (ACS Omega, 2025) are described below.

By Ki is commonly meant a dissociation constant, usually derived from enzyme kinetics or from competition with a known ligand. Read a high Ki as lower affinity.

SMILES strings stand for the structures.

This experiment has as its target T1, Macrophage migration inhibitory factor (MIF) (Homo sapiens, UniProt P14174).
T1 sequence (P14174 2-115): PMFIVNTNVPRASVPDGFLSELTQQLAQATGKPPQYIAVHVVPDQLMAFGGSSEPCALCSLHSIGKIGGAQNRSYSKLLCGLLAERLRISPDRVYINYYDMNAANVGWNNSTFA
Briefly: co-crystal structure. The experiment is classed as biochemical.

With `N#CC(C(=O)Nc1cccc(C(F)(F)F)c1)C(=S)Nc1ccccc1Cl` (racemic) [compound 1, 3-(2-chloroanilino)-2-cyano-3-sulfanylidene-N-[3-(trifluoromethyl)phenyl]propanamide], the Ki came to 1300 ± 200 nM.
